Measured values as given in ChEMBL document CHEMBL3044774, “Synthesis of D-glucosamine quaternary ammonium derivatives and evaluation of their antifungal activity together with aminodeoxyglucose derivatives against two wood fungi Coriolus versicolor and Poria placenta: structure-activity relationships” (2011).

Columns and labels:
Assay type in all cases: functional
[1] = system: Poria; assay: Antifungal activity against Poria placenta FPRL 280 assessed as mycelial growth inhibition at 0.75 x 10^-4 mol/ml after 9 days relative to control
[2] = system: Trametes versicolor; assay: Antifungal activity against Trametes versicolor Quel. CTB 863-A assessed as mycelial growth inhibition at 1.5 x 10^-4 mol/ml after 9 days relative to control
[3] = system: Poria; assay: Antifungal activity against Poria placenta FPRL 280 assessed as mycelial growth inhibition at 0.5 x 10^-4 mol/ml after 9 days relative to control
[4] = system: Trametes versicolor; assay: Antifungal activity against Trametes versicolor Quel. CTB 863-A assessed as mycelial growth inhibition at 1 x 10^-4 mol/ml after 9 days relative to control

| Compound | growth inhibition (GI) [1] | growth inhibition (GI) [2] | growth inhibition (GI) [3] | growth inhibition (GI) [4] |
| --- | --- | --- | --- | --- |
| CC(=O)OC[C@H]1OC(OC(C)=O)[C@H](N(C)C)[C@@H](OC(C)=O)[C@@H]1OC(C)=O (stereo partly specified) | 48.2% | 34.9% | – | – |
| N[C@@H]1O[C@H](CO)[C@@H](O)[C@H](O)[C@H]1O | 100% | 82.4% | 81.6% | 50.6% |
| N[C@H]1[C@H](O)[C@@H](CO)OC(O)[C@@H]1O (stereo partly specified) | 26.7% | 14.9% | 18.4% | 0% |
| NC[C@H]1O[C@@H](O)[C@H](O)[C@@H](O)[C@@H]1O | 31.7% | 19.2% | 27.1% | 6.7% |
| CC(=O)OC[C@H]1OC(OC(C)=O)[C@H]([N+](C)(C)C)[C@@H](OC(C)=O)[C@@H]1OC(C)=O (stereo partly specified) | 74.1% | 45.9% | – | – |
| CCN[C@H]1C(OC(C)=O)O[C@H](COC(C)=O)[C@@H](OC(C)=O)[C@@H]1OC(C)=O (stereo partly specified) | – | 53.7% | – | – |
| CC[N+](C)(C)[C@H]1C(OC(C)=O)O[C@H](COC(C)=O)[C@@H](OC(C)=O)[C@@H]1OC(C)=O (stereo partly specified) | 80% | 74.9% | – | – |
| CCN[C@H]1C(O)O[C@H](CO)[C@@H](O)[C@@H]1O (stereo partly specified) | 47.1% | 40.4% | – | – |
| CC[N+](C)(C)[C@H]1C(O)O[C@H](CO)[C@@H](O)[C@@H]1O.O=S(=O)([O-])O (stereo partly specified) | 77.2% | 64.4% | – | – |
| CC(=O)OC[C@H]1OC(OC(C)=O)[C@H](NC2CCCCC2)[C@@H](OC(C)=O)[C@@H]1OC(C)=O (stereo partly specified) | 91.8% | 87.9% | – | – |
| CC(=O)OC[C@H]1OC(OC(C)=O)[C@H]([N+](C)(C)C2CCCCC2)[C@@H](OC(C)=O)[C@@H]1OC(C)=O (stereo partly specified) | 100% | 100% | – | – |
| N[C@H]1C(O)O[C@H](CO)[C@@H](O)[C@@H]1O (stereo partly specified) [GLUCOSAMINE] | 25.9% | 11% | 10.2% | 0% |
